This note sets out measurements from patent US7897625B2, “Carbamoylbenzotriazole derivatives as inhibitors of lipases and phospholipases” (Sanofi-Aventis, priority 2005, dated 2011).

The term IC50 denotes the concentration needed to halve the response being measured.

The target of this assay is T1, Endothelial lipase (Homo sapiens, UniProt Q9Y5X9).
T1 construct: made in house; host or cells: CHO, HEK293 (recombinant cell lines; concentrated conditioned medium used as enzyme solution)
T1 sequence (Q9Y5X9 21-500): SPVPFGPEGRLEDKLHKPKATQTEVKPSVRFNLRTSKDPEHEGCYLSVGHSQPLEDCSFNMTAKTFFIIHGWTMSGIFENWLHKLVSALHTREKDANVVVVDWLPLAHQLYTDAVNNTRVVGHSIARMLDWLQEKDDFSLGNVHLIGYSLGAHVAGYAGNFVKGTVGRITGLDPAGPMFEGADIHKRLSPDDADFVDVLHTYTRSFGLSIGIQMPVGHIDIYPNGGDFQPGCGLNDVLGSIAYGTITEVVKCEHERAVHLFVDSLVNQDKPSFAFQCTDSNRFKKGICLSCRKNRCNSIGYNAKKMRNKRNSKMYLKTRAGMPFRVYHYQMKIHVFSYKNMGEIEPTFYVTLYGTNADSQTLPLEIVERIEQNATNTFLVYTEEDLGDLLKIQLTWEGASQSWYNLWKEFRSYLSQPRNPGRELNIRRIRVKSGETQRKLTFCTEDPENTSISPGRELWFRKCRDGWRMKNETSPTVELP
In words: EL inhibition assay. It is filed as biochemical. To be noted: values marked * are IC50 values of a mixture of the indicated regioisomers; 37° C., 60 minutes, Bodipy phospholipid substrate. The procedure:
The activity of the compounds of the invention of the formula I was tested in the following enzyme assay system: […]
Endothelial lipase is released as secretory protein in high concentration into cell culture medium (conditioned medium) by recombinant cell lines (CHO, HEK293). This is employed as enzyme solution after concentration.
The phospholipase-specific substrate 1,2-bis(4,4-difluoro-5,7-dimethyl-4-bora-3a,4a-diaza-s-indacene-3-undecanoyl)-sn-glycero-3-phosphocholine, (manufacturer Molecular Probes) is used to characterize the enzymatic activity of endothelial lipase and the effect of inhibitors. Hydrolysis of the A1 ester linkage of this phospholipid by the enzyme liberates the fluorescent dye Bodipy which can be detected after separation by thin-layer chromatography on an HPTLC plate (silica gel 60, Merck) or directly in the reaction vessel by measuring the fluorescence.
The substrate solution is prepared by taking up 100 μg of 1,2-bis(4,4-difluoro-5,7-dimethyl-4-bora-3a,4a-diaza-s-indacene-3-undecanoyl)-sn-glycero-3-phospho-choline (manufacturer Molecular Probes), 2.4 mg of tripalmitin (Sigma) and 7.9 mg of DOP—choline (1,2-dioleoyl-sn-glycero-3-phosphocholine) in 393 μl of chloroform and then transferring 157 μl into a fresh reaction vessel. After evaporation of the solvent, the lipid mixture is dissolved in 4 ml of 200 mM TRIS-HCl, 150 mM sodium chloride, pH=7.4, by sonication twice. The subsequent enzymic reaction takes place at 37° C. for 60 minutes. For this purpose, 45 μl of the substrate solution are incubated with 1 μl of inhibitor of appropriate concentration (dissolved in DMSO, pure DMSO solution is used as control) and 5 μl of enzyme solution (conditioned medium). Then 3 μl of the assay mixture are loaded onto an HPTLC plate (silica gel 60, Merck), and the liberated fluorescent dye is separated for detection with an eluent (diethyl ether:petroleum benzene:acetic acid [78:22:1]). After evaporation of the eluent, the plate is read in a fluorescence scanner. An increased release of the fluorescent dye in the uninhibited reaction is to be observed as a measure of the enzymic activity.
The enzymatic activity is reduced as a function of the inhibitor concentration used, and the inhibitor concentration at which a half-maximum enzymic activity is observed is called IC50.
As to `O=C(NCc1ccc(Cl)cc1)n1nnc2ccccc21` [Example 28], the IC50 is 440 nM.

Turning to `N#Cc1ccc2sc(CNC(=O)n3nnc4ccccc43)cc2c1` [Example 10], the IC50 was 510 nM. Turning to `O=C(NCc1ccc(-c2cccs2)s1)n1nnc2ccccc21` [Example 15], the IC50 is 520 nM. With `Cc1ccsc1CNC(=O)n1nnc2ccccc21` [Example 9], the concentration for half-maximal inhibition (IC50) stood at 80 nM. The same measure for `Cc1cccc(CNC(=O)n2nnc3ccccc32)c1` [Example 1]: 20 nM.

For `C[C@H](NC(=O)n1nnc2ccccc21)c1ccccc1` [Example 36], the IC50 is 710 nM. As for `C[C@@H](NC(=O)n1nnc2ccccc21)c1ccccc1` [Example 23], the IC50 came out at 31 nM.
